Measured values from patent US8722849B2, “Polypeptides” (Novo Nordisk A/S, priority 2011, dated 2014).
In brackets after ≈: the same amount, converted by molar mass. Where two headings read alike, the source gives them in different places. Starred links: 1 amine or outer side, 2 acyl side, 3 side chain; linkers in the order of their positions; H or OH if unused. Positions of bridges follow the written chain, without caps; N, C: chain ends. Residues, ends and D or L forms follow the SMILES beside them. *: point of attachment. C20 diacid = O=C(O)CCCCCCCCCCCCCCCCCCC(=O)*; γGlu = O=C(O)[C@H](CCC(=O)[*:2])N[*:1]

Assay: Assay (IV) determination of solubility
Assay type: physicochemical
Outline: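 Polypeptide in water (~500 nmol/ml) mixed 1:1 with 100 mM glycylglycine (pH 3.0–5.0) or bistrispropane (pH 6.0–8.0) buffers. Held 18 hours at room temperature, then centrifuged. Polypeptide remaining in solution quantified by HPLC.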

[1] = bistrispropane buffer, pH 6, pH 6.0, read-out: Solubility pH 6.0
[2] = bistrispropane buffer, pH 6.5, pH 6.5, read-out: Solubility pH 6.5
[3] = bistrispropane buffer, pH 7, pH 7.0, read-out: Solubility pH 7.0
[4] = bistrispropane buffer, pH 7.5, pH 7.5, read-out: Solubility pH 7.5
[5] = bistrispropane buffer, pH 8, pH 8.0, read-out: Solubility pH 8.0
[6] = glycylglycine buffer, pH 3, pH 3.0, read-out: Solubility pH 3.0
[7] = glycylglycine buffer, pH 4, pH 4.0, 18 hours at room temperature, Table 2, read-out: Solubility pH 4.0
[8] = glycylglycine buffer, pH 4, pH 4.0, read-out: Solubility pH 4.0
[9] = glycylglycine buffer, pH 5, pH 5.0, read-out: Solubility pH 5.0

Row | SMILES | solubility at 18 h [1] [µM] | solubility at 18 h [2] [µM] | solubility at 18 h [3] [µM] | solubility at 18 h [4] [µM] | solubility at 18 h [5] [µM] | solubility at 18 h [6] [µM] | solubility at 18 h [7] [µM] | solubility at 18 h [8] [µM] | solubility at 18 h [9] [µM] | solubility at 18 h (pH 8.0, read-out: Solubility pH 8.0) [µM] | solubility at 18 h (bistrispropane buffer, pH 7, pH 7.0, 18 hours at room temperature, Table 3, read-out: Solubility pH 7.0) [µM] | solubility at 18 h (bistrispropane buffer, pH 7, pH 7.0, Table 8, read-out: Solubility pH 7.0) [µM] | solubility at 18 h (bistrispropane buffer, pH 7, pH 7.0, Table 9, read-out: Solubility pH 7.0) [µM] | solubility at 18 h (bistrispropane buffer, pH 7.5, pH 7.5, Table 9, read-out: Solubility pH 7.5) [µM]
1 | CC[C@H](C)[C@H](NC(=O)[C@@H]1CCCN1C(=O)CNC(=O)[C@H](Cc1ccccc1)NC(=O)[C@H](CC(N)=O)NC(=O)[C@H](CC(N)=O)NC(=O)[C@H](CO)NC(=O)[C@H](CO)NC(=O)[C@H](Cc1c[nH]cn1)NC(=O)[C@H](Cc1c[nH]cn1)NC(=O)[C@H](CC(C)C)NC(=O)[C@H](Cc1ccccc1)NC(=O)[C@H](CCC(=O)O)NC(=O)[C@H](C)NC(=O)[C@H](CC(C)C)NC(=O)[C@H](CCCNC(=N)N)NC(=O)[C@H](CCC(N)=O)NC(=O)[C@@H](NC(=O)[C@H](C)NC(=O)[C@@H]1CSSC[C@H](NC(=O)[C@H](CCCCN)NC(=O)[C@H](Cc2c[nH]cn2)NC(=O)CC[C@H](NC(=O)CCCCCCCCCCCCCCCCCCC(=O)O)C(=O)O)C(=O)N[C@@H](CC(N)=O)C(=O)N[C@@H]([C@@H](C)O)C(=O)N[C@@H](C)C(=O)N[C@@H]([C@@H](C)O)C(=O)N1)[C@@H](C)O)C(=O)N[C@@H](CC(C)C)C(=O)N1CCC[C@H]1C(=O)N1CCC[C@H]1C(=O)N[C@H](C(=O)N[C@@H](CC(N)=O)C(=O)N[C@H](C(=O)NCC(=O)N[C@@H](CO)C(=O)N[C@@H](Cc1c[nH]cn1)C(=O)N[C@H](C(=O)N[C@@H](Cc1ccc(O)cc1)C(N)=O)[C@@H](C)O)C(C)C)[C@@H](C)O [Example 66, N-alpha-[(S)-4-Carboxy-4-(19-carboxynonadecanoylamino)butyryl]-His-[Glu14,His17,His35]-pramlintide] ({C20 diacid-γGlu}-HKCNTATCATQRLAEFLHHSSNNFGPILPPTNVGSHTY-NH2; disulfide 3-8 (inferred); C-terminus assumed) | > 200 | 155 (≈ 716 µg/mL) | 46 (≈ 212 µg/mL) | 77 (≈ 355 µg/mL) | 144 (≈ 665 µg/mL) | > 200 | > 200 | > 200 | > 200 |  |  |  |  | 
2 | CC[C@H](C)[C@H](NC(=O)[C@@H]1CCCN1C(=O)CNC(=O)[C@H](Cc1ccccc1)NC(=O)[C@H](CC(N)=O)NC(=O)[C@H](CC(N)=O)NC(=O)[C@H](CO)NC(=O)[C@H](CO)NC(=O)[C@H](Cc1c[nH]cn1)NC(=O)[C@H](Cc1c[nH]cn1)NC(=O)[C@H](CC(C)C)NC(=O)[C@H](Cc1ccccc1)NC(=O)[C@H](CCC(=O)O)NC(=O)[C@H](C)NC(=O)[C@H](CC(C)C)NC(=O)[C@H](CCCNC(=N)N)NC(=O)[C@H](CCC(N)=O)NC(=O)[C@@H](NC(=O)[C@H](C)NC(=O)[C@@H]1CSSC[C@H](NC(=O)[C@H](Cc2c[nH]cn2)NC(=O)[C@H](Cc2c[nH]cn2)NC(=O)[C@H](Cc2c[nH]cn2)NC(=O)CC[C@H](NC(=O)CCCCCCCCCCCCCCCCCCC(=O)O)C(=O)O)C(=O)N[C@@H](CC(N)=O)C(=O)N[C@@H]([C@@H](C)O)C(=O)N[C@@H](C)C(=O)N[C@@H]([C@@H](C)O)C(=O)N1)[C@@H](C)O)C(=O)N[C@@H](CC(C)C)C(=O)N1CCC[C@H]1C(=O)N1CCC[C@H]1C(=O)N[C@H](C(=O)N[C@@H](CC(N)=O)C(=O)N[C@H](C(=O)NCC(=O)N[C@@H](CO)C(=O)N[C@@H](CCCNC(=N)N)C(=O)N[C@H](C(=O)N[C@@H](Cc1ccc(O)cc1)C(N)=O)[C@@H](C)O)C(C)C)[C@@H](C)O [Example 21, N-alpha-[(S)-4-Carboxy-4-(19-carboxynonadecanoylamino)butyryl]-His-His-[His1,Glu14,His17,Arg35]-pramlintide] ({C20 diacid-γGlu}-HHHCNTATCATQRLAEFLHHSSNNFGPILPPTNVGSRTY-NH2; disulfide 4-9 (inferred)) | > 200 | 87 (≈ 416 µg/mL) |  |  |  | > 200 | > 200 | > 200 | > 200 | 1 (≈ 4.78 µg/mL) |  |  |  | 
3 | CC[C@H](C)[C@H](NC(=O)[C@@H]1CCCN1C(=O)CNC(=O)[C@H](Cc1ccccc1)NC(=O)[C@H](CC(N)=O)NC(=O)[C@H](CC(N)=O)NC(=O)[C@H](CO)NC(=O)[C@H](CO)NC(=O)[C@H](Cc1c[nH]cn1)NC(=O)[C@@H](NC(=O)[C@H](CC(C)C)NC(=O)[C@H](Cc1ccccc1)NC(=O)[C@H](CCC(=O)O)NC(=O)[C@H](C)NC(=O)[C@H](CC(C)C)NC(=O)[C@H](CCCNC(=N)N)NC(=O)[C@H](CCC(N)=O)NC(=O)[C@@H](NC(=O)[C@H](C)NC(=O)[C@@H]1CSSC[C@H](NC(=O)[C@H](CCCCN)NC(=O)CC[C@H](NC(=O)CCCCCCCCCCCCCCCCCCC(=O)O)C(=O)O)C(=O)N[C@@H](CC(N)=O)C(=O)N[C@@H]([C@@H](C)O)C(=O)N[C@@H](C)C(=O)N[C@@H]([C@@H](C)O)C(=O)N1)[C@@H](C)O)C(C)C)C(=O)N[C@@H](CC(C)C)C(=O)N1CCC[C@H]1C(=O)N1CCC[C@H]1C(=O)N[C@H](C(=O)N[C@@H](CC(N)=O)C(=O)N[C@H](C(=O)NCC(=O)N[C@@H](CO)C(=O)N[C@@H](Cc1c[nH]cn1)C(=O)N[C@H](C(=O)N[C@@H](Cc1ccc(O)cc1)C(N)=O)[C@@H](C)O)C(C)C)[C@@H](C)O [Example 93, N-alpha-[(S)-4-Carboxy-4-(19-carboxynonadecanoylamino)butyryl]-[Glu14,His35]-pramlintide] ({C20 diacid-γGlu}-KCNTATCATQRLAEFLVHSSNNFGPILPPTNVGSHTY-NH2; disulfide 2-7 (inferred); C-terminus assumed) | > 200 | 84 (≈ 373 µg/mL) | 74 (≈ 329 µg/mL) | 163 (≈ 724 µg/mL) | > 200 | > 200 | > 200 | > 200 | > 200 |  |  |  |  | 
4 | CC[C@H](C)[C@H](NC(=O)[C@@H]1CCCN1C(=O)CNC(=O)[C@H](Cc1ccccc1)NC(=O)[C@H](CC(N)=O)NC(=O)[C@H](CC(N)=O)NC(=O)[C@H](CO)NC(=O)[C@H](CO)NC(=O)[C@H](Cc1c[nH]cn1)NC(=O)[C@H](CCCNC(=N)N)NC(=O)[C@H](CC(C)C)NC(=O)[C@H](Cc1ccccc1)NC(=O)[C@H](CCC(=O)O)NC(=O)[C@H](C)NC(=O)[C@H](CC(C)C)NC(=O)[C@H](CCCNC(=N)N)NC(=O)[C@H](CCC(N)=O)NC(=O)[C@@H](NC(=O)[C@H](C)NC(=O)[C@@H]1CSSC[C@H](NC(=O)CNC(=O)CC[C@H](NC(=O)CCCCCCCCCCCCCCCCCCC(=O)O)C(=O)O)C(=O)N[C@@H](CC(N)=O)C(=O)N[C@@H]([C@@H](C)O)C(=O)N[C@@H](C)C(=O)N[C@@H]([C@@H](C)O)C(=O)N1)[C@@H](C)O)C(=O)N[C@@H](CC(C)C)C(=O)N1CCC[C@H]1C(=O)N1CCC[C@H]1C(=O)N[C@H](C(=O)N[C@@H](CC(N)=O)C(=O)N[C@H](C(=O)NCC(=O)N[C@@H](CO)C(=O)N[C@@H](CC(N)=O)C(=O)N[C@H](C(=O)N1CCC[C@H]1C(N)=O)[C@@H](C)O)C(C)C)[C@@H](C)O [Example 88, N-alpha-[(S)-4-Carboxy-4-(19-carboxynonadecanoylamino)butyryl]-[Gly1,Glu14,Arg17,Pro37]-pramlintide] ({C20 diacid-γGlu}-GCNTATCATQRLAEFLRHSSNNFGPILPPTNVGSNTP-NH2; disulfide 2-7 (inferred); C-terminus assumed) | > 200 | > 200 | > 200 | > 200 | > 200 | > 200 | > 200 | > 200 | > 200 |  | > 200 | > 200 | > 200 | > 200
